Laboratory results as given in the supplement of paper PMC10307832.

Legend:
Assay in all cases: relative viability (nuclei count vs DMSO), 5 days (fraction); higher = more cells survive
NCI-H2085 = test system: NCI-H2085
In short: (§1)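 For relative viability, nuclei counts in treated wells were divided by those in vehicle wells. Lung cancer cell lines had been pin-tool dosed in 1536-well plates the day after seeding and cultured for 5 days, then fixed and stained in one step (final 0.05% Triton X-100, 1% formaldehyde, 1 ug/ml Hoechst) and imaged at 4×. Doses were one drug alone or a fixed anchor-drug dose plus five library-drug doses (not always all listed) in √10 steps, and values are duplicate-plate medians.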

NCI-H460 = test system: NCI-H460
In short: as §1

NCI-H520 = test system: NCI-H520
In short: as §1

NCI-H1993 = test system: NCI-H1993
In short: as §1

LK-2 = test system: LK-2
In short: as §1

ChaGo-K-1 = test system: ChaGo-K-1
In short: as §1

NCI-H1355 = test system: NCI-H1355
In short: as §1

SK-LU-1 = test system: SK-LU-1
In short: as §1

NCI-H838 = test system: NCI-H838
In short: as §1

LCLC-97TM1 = test system: LCLC-97TM1
In short: as §1

NCI-H2405 = test system: NCI-H2405
In short: as §1

201T = test system: 201T
In short: as §1

HCC-15 = test system: HCC-15
In short: as §1

NCI-H3122 = test system: NCI-H3122
In short: as §1

HCC-78 = test system: HCC-78
In short: as §1

HARA = test system: HARA
In short: as §1

HCC-366 = test system: HCC-366
In short: as §1

COR-L23 = test system: COR-L23
In short: as §1

NCI-H1734 = test system: NCI-H1734
In short: as §1

LOU-NH91 = test system: LOU-NH91
In short: as §1

NCI-H1975 = test system: NCI-H1975
In short: as §1

NCI-H1650 = test system: NCI-H1650
In short: as §1

For `C=C1C(=O)O[C@@H](CCCCCCCC)[C@@H]1C(=O)O` [C-75] + O=C(CCCCCCC(=O)Nc1ccccc1)NO [Vorinostat] (partner 1 µM), the relative viability (NCI-H2085; first compound 0.08 µM) was 0.801, the relative viability (NCI-H2085; first compound 0.253 µM) was 0.749 and the relative viability (NCI-H2085; first compound 0.8 µM) was 0.752. For the same compound, the relative viability (NCI-H2085; first compound 2.53 µM) was 0.664, the relative viability (NCI-H2085; first compound 8 µM) was 0.738 and the relative viability (NCI-H460; first compound 0.08 µM) was 0.698. It also gave a relative viability (NCI-H460; first compound 0.253 µM) of 0.882, a relative viability (NCI-H460; first compound 0.8 µM) of 0.688 and a relative viability (NCI-H460; first compound 2.53 µM) of 0.58. The relative viability (NCI-H460; first compound 8 µM) was 0.674, the relative viability (NCI-H520; first compound 0.08 µM) was 0.647 and the relative viability (NCI-H520; first compound 0.253 µM) was 0.716. The relative viability (NCI-H520; first compound 0.8 µM) was 0.637, the relative viability (NCI-H520; first compound 2.53 µM) was 0.577 and the relative viability (NCI-H520; first compound 8 µM) was 0.592. It also gave a relative viability (NCI-H1993; first compound 0.08 µM) of 0.719, a relative viability (NCI-H1993; first compound 0.253 µM) of 0.842 and a relative viability (NCI-H1993; first compound 0.8 µM) of 0.616. It also gave a relative viability (NCI-H1993; first compound 2.53 µM) of 0.715, a relative viability (NCI-H1993; first compound 8 µM) of 0.657 and a relative viability (LK-2; first compound 0.08 µM) of 0.387. It also gave a relative viability (LK-2; first compound 0.253 µM) of 0.315, a relative viability (LK-2; first compound 0.8 µM) of 0.319 and a relative viability (LK-2; first compound 2.53 µM) of 0.286. It also gave a relative viability (LK-2; first compound 8 µM) of 0.324, a relative viability (ChaGo-K-1; first compound 0.08 µM) of 0.759 and a relative viability (ChaGo-K-1; first compound 0.253 µM) of 0.772. The relative viability (ChaGo-K-1; first compound 0.8 µM) was 0.701, the relative viability (ChaGo-K-1; first compound 2.53 µM) was 0.609 and the relative viability (ChaGo-K-1; first compound 8 µM) was 0.668. It also gave a relative viability (NCI-H1355; first compound 0.08 µM) of 0.643, a relative viability (NCI-H1355; first compound 0.253 µM) of 0.696 and a relative viability (NCI-H1355; first compound 0.8 µM) of 0.67. It also gave a relative viability (NCI-H1355; first compound 2.53 µM) of 0.52, a relative viability (NCI-H1355; first compound 8 µM) of 0.639 and a relative viability (SK-LU-1; first compound 0.08 µM) of 0.782. For the same compound, the relative viability (SK-LU-1; first compound 0.253 µM) was 0.724, the relative viability (SK-LU-1; first compound 0.8 µM) was 0.698 and the relative viability (SK-LU-1; first compound 2.53 µM) was 0.752. For the same compound, the relative viability (SK-LU-1; first compound 8 µM) was 0.59, the relative viability (NCI-H838; first compound 0.08 µM) was 0.761 and the relative viability (NCI-H838; first compound 0.253 µM) was 0.669. It also gave a relative viability (NCI-H838; first compound 0.8 µM) of 0.726, a relative viability (NCI-H838; first compound 2.53 µM) of 0.648 and a relative viability (NCI-H838; first compound 8 µM) of 0.663. For the same compound, the relative viability (LCLC-97TM1; first compound 0.08 µM) was 0.864, the relative viability (LCLC-97TM1; first compound 0.253 µM) was 0.817 and the relative viability (LCLC-97TM1; first compound 0.8 µM) was 0.49. For the same compound, the relative viability (LCLC-97TM1; first compound 2.53 µM) was 0.413, the relative viability (LCLC-97TM1; first compound 8 µM) was 0.455 and the relative viability (NCI-H2405; first compound 0.08 µM) was 1. It also gave a relative viability (NCI-H2405; first compound 0.253 µM) of 0.831, a relative viability (NCI-H2405; first compound 0.8 µM) of 0.313 and a relative viability (NCI-H2405; first compound 2.53 µM) of 0.708. For the same compound, the relative viability (NCI-H2405; first compound 8 µM) was 0.891, the relative viability (201T; first compound 0.08 µM) was 0.976 and the relative viability (201T; first compound 0.253 µM) was 1.31. For the same compound, the relative viability (201T; first compound 0.8 µM) was 0.91, the relative viability (201T; first compound 2.53 µM) was 0.936 and the relative viability (201T; first compound 8 µM) was 0.979. For the same compound, the relative viability (HCC-15; first compound 0.08 µM) was 0.831, the relative viability (HCC-15; first compound 0.253 µM) was 0.918 and the relative viability (HCC-15; first compound 0.8 µM) was 0.838. It also gave a relative viability (HCC-15; first compound 2.53 µM) of 0.862, a relative viability (HCC-15; first compound 8 µM) of 0.835 and a relative viability (NCI-H3122; first compound 0.08 µM) of 1.02. The relative viability (NCI-H3122; first compound 0.253 µM) was 1.6, the relative viability (NCI-H3122; first compound 0.8 µM) was 1.01 and the relative viability (NCI-H3122; first compound 2.53 µM) was 0.578. For the same compound, the relative viability (NCI-H3122; first compound 8 µM) was 0.989, the relative viability (HCC-78; first compound 0.08 µM) was 0.372 and the relative viability (HCC-78; first compound 0.253 µM) was 0.668. The relative viability (HCC-78; first compound 0.8 µM) was 0.373, the relative viability (HCC-78; first compound 8 µM) was 0.372 and the relative viability (HARA; first compound 0.08 µM) was 0.598. For the same compound, the relative viability (HARA; first compound 0.253 µM) was 0.258, the relative viability (HARA; first compound 0.8 µM) was 0.415 and the relative viability (HARA; first compound 2.53 µM) was 0.537. For the same compound, the relative viability (HARA; first compound 8 µM) was 0.438, the relative viability (HCC-366; first compound 0.08 µM) was 0.409 and the relative viability (HCC-366; first compound 0.253 µM) was 0.399. The relative viability (HCC-366; first compound 0.8 µM) was 0.256, the relative viability (HCC-366; first compound 2.53 µM) was 0.269 and the relative viability (HCC-366; first compound 8 µM) was 0.301. The relative viability (COR-L23; first compound 0.08 µM) was 0.507, the relative viability (COR-L23; first compound 0.253 µM) was 0.408 and the relative viability (COR-L23; first compound 0.8 µM) was 0.446. The relative viability (COR-L23; first compound 2.53 µM) was 0.37, the relative viability (COR-L23; first compound 8 µM) was 0.327 and the relative viability (NCI-H1734; first compound 0.08 µM) was 0.834. The relative viability (NCI-H1734; first compound 0.253 µM) was 0.877, the relative viability (NCI-H1734; first compound 0.8 µM) was 0.766 and the relative viability (NCI-H1734; first compound 2.53 µM) was 0.538. For the same compound, the relative viability (NCI-H1734; first compound 8 µM) was 0.693, the relative viability (LOU-NH91; first compound 0.08 µM) was 0.939 and the relative viability (LOU-NH91; first compound 0.253 µM) was 0.939. It also gave a relative viability (LOU-NH91; first compound 0.8 µM) of 0.828, a relative viability (LOU-NH91; first compound 8 µM) of 0.898 and a relative viability (NCI-H1975; first compound 0.08 µM) of 0.757. It also gave a relative viability (NCI-H1975; first compound 0.253 µM) of 0.733, a relative viability (NCI-H1975; first compound 0.8 µM) of 0.761 and a relative viability (NCI-H1975; first compound 2.53 µM) of 0.718. For the same compound, the relative viability (NCI-H1975; first compound 8 µM) was 0.742, the relative viability (NCI-H1650; first compound 0.08 µM) was 0.597 and the relative viability (NCI-H1650; first compound 0.253 µM) was 0.751. It also gave a relative viability (NCI-H1650; first compound 0.8 µM) of 0.665 and a relative viability (NCI-H1650; first compound 8 µM) of 0.463.
